Laboratory results published in patent US7297797B2, “Pyrrolines” (Bayer CropScience AG, priority 2002, dated 2007).
Like-named read-outs stand apart in the source and are kept apart here.

Experiments:
[1] = log P determination by HPLC on reversed-phase column (EEC Directive 79/831 Annex V.A8); type: physicochemical
Procedure: The log P values given in the preparation examples and tables above are determined in accordance with EEC Directive 79/831 Annex V.A8 by HPLC (High Performance Liquid Chromatography) on a reversed-phase column (C 18). Temperature: 43° C. In the acidic range, determination is carried out at pH 2.3 using the mobile phases 0.1% aqueous phosphoric acid and acetonitrile; linear gradient from 10% acetonitrile to 90% acetonitrile (in the tables marked with a)). In the neutral range, determination is carried out at pH 7.5 using the mobile phases 0.01 molar aqueous phosphate buffer solution and acetonitrile; linear gradient from 10% acetonitrile to 90% acetonitrile (in the tables marked with b)). Calibration is carried out using unbranched alkan-2-ones (of 3 to 16 carbon atoms) with known lopP values (determination of the log P values by the retention times using linear interpolation between two successive alkanones).

[2] = tested on: caterpillars of the cotton bollworm (Heliothis armigera); assay: Heliothis armigera test; type: in vivo; conditions: Helicoverpa armigera, 168 h; 100 ppm active compound; soybean shoots (Glycine max) dipped; after 7 d; read-out: Kill rate in % after 7 d
Procedure: (§1) Heliothis armigera Test • Solvent: 7 parts by weight of dimethylformamide • Emulsifier: 2 parts by weight of alkylaryl polyglycol ether To produce a suitable preparation of active compound, 1 part by weight of active compound is mixed with the stated amounts of solvent and emulsifier, and the concentrate is diluted with emulsifier-containing water to the desired concentration. Soybean shoots (Glycine max) are treated by being dipped into the preparation of active compound of the desired concentration and are populated with caterpillars of the cotton bollworm (Heliothis armigera) while the leaves are still moist. After the desired period of time, the kill in % is determined. 100% means that all caterpillars have been killed; 0% means that none of the caterpillars have been killed. In this test, for example, the following compounds of the preparation examples show good activity: […]

[3] = tested on: larvae of the mustard beetle (Phaedon cochleariae); assay: Phaedon larvae test; type: in vivo; conditions: 168 h, 100 ppm active compound, cabbage leaves (Brassica oleracea) dipped, after 7 d, read-out: Kill rate in % after 7 d
Procedure: as §1, with “Phaedon Larvae Test” for “Heliothis armigera Test”, “concentration. Cabbage leaves (Brassica oleracea)” for “concentration. Soybean shoots (Glycine max)”, “with larvae” for “with caterpillars”, “the mustard beetle (Phaedon cochleariae)” for “the cotton bollworm (Heliothis armigera)”, “all beetle larvae” for “all caterpillars”, “the beetle larvae” for “the caterpillars”

[4] = tested on: caterpillars of the army worm (Spodoptera frugiperda); assay: Spodoptera frugiperda test; type: in vivo; conditions: 168 h, 100 ppm active compound, cabbage leaves (Brassica oleracea) dipped, after 7 d, read-out: Kill rate in % after 7 d
Procedure: as §1, with “Spodoptera frugiperda” for “Heliothis armigera”, “Cabbage leaves (Brassica oleracea)” for “Soybean shoots (Glycine max)”, “army worm (Spodoptera frugiperda)” for “cotton bollworm (Heliothis armigera)”

[5] = tested on: greenhouse red spider mite (Tetranychus urticae); assay: Tetranychus test (OP-resistant/dip treatment); type: in vivo; conditions: 168 h, 100 ppm active compound, infested bean plants (Phaseolus vulgaris) dipped, OP-resistant, after 7 d, read-out: Kill rate in % after 7 d
Procedure: Tetranychus Test (OP-Resistant/Dip Treatment)
• Solvent: 7 parts by weight of dimethylformamide • Emulsifier: 2 parts by weight of alkylaryl polyglycol ether
To produce a suitable preparation of active compound, 1 part by weight of active compound is mixed with the stated amounts of solvent and emulsifier, and the concentrate is diluted with emulsifier-containing water to the desired concentration.
Bean plants (Phaseolus vulgaris) which are heavily infested by all stages of the greenhouse red spider mite (Tetranychus urticae) are treated by being dipped into a preparation of active compound of the desired concentration.
After the desired period of time, the activity in % is determined. 100% means that all spider mites have been killed; 0% means that none of the spider mites have been killed.
In this test, for example, the following compounds of the preparation examples show good efficacy: […]

[6] = tested on: caterpillars of the diamondback moth (Plutella xylostella); assay: Plutella test; type: in vivo; conditions: 100 ppm active compound, cabbage leaves (Brassica oleracea) dipped
Procedure: as §1, with “Plutella” for “Heliothis armigera”, “Cabbage leaves (Brassica oleracea)” for “Soybean shoots (Glycine max)”, “diamondback moth (Plutella xylostella)” for “cotton bollworm (Heliothis armigera)”

[7] = tested on: caterpillars of the army worm (Spodoptera exigua); assay: Spodoptera exigua test; type: in vivo; conditions: 100 ppm active compound, cabbage leaves (Brassica oleracea) dipped
Procedure: as §1, with “Spodoptera exigua” for “Heliothis armigera”, “Cabbage leaves (Brassica oleracea)” for “Soybean shoots (Glycine max)”, “army worm (Spodoptera exigua)” for “cotton bollworm (Heliothis armigera)”

[8] = reversed-phase C18 HPLC column; acidic range, pH 2.3, 0.1% aqueous phosphoric acid/acetonitrile, 43° C.; marked a) in tables, read-out: log P (pH 2.3)
[9] = reversed-phase C18 HPLC column; neutral range, pH 7.5, 0.01 molar aqueous phosphate buffer/acetonitrile, 43° C.; marked b) in tables, read-out: log P (pH 7.5)

chromatographic logP [1, 8] | chromatographic logP [1, 9] | SMILES | pest or weed control at 100 ppm [2] [%] | pest or weed control at 100 ppm [3] [%] | pest or weed control at 100 ppm [4] [%] | pest or weed control at 100 ppm [5] [%] | Kill rate in % after 7 d [6] [%] | Kill rate in after 7 d [7] [%]
4.88 | 5.84 | CCOc1ccc(-c2ccc(-c3ccc(C4CCC(c5c(F)cccc5F)=N4)cc3)cc2)s1 (centres unmarked) [Example 1, 5-(2,6-difluorophenyl)-2-[4′-(5-ethoxy-2-thienyl)-1,1′-biphenyl-4-yl]-3,4-dihydro-2H-pyrrole] | 100 | 100 | 100 | 95 | 100 | 
4.35 |  | COc1ccc(-c2ccc(-c3ccc(C4CCC(c5c(F)cccc5F)=N4)cc3)cc2)s1 (centres unmarked) [Example 2, 5-(2,6-difluorophenyl)-2-[4′-(5-methoxy-2-thienyl)-1,1′-biphenyl-4-yl]-3,4-dihydro-2H-pyrrole] | 100 | 100 | 100 |  |  | 
5.2 |  | CC(C)Oc1ccc(-c2ccc(-c3ccc(C4CCC(c5c(F)cccc5F)=N4)cc3)cc2)s1 (centres unmarked) [Example 3, 5-(2,6-difluorophenyl)-2-[4′-(5-isopropoxy-2-thienyl)-1,1′-biphenyl-4-yl]-3,4-dihydro-2H-pyrrole] | 100 | 100 | 100 |  |  | 
3.32 |  | Cc1ccccc1C1=NC(c2ccc(-c3ccc(-c4noc(C(F)(F)F)n4)cc3)cc2)CC1 (centres unmarked) [Example 4, 3-{4′-[5-(2-methylphenyl)-3,4-dihydro-2H-pyrrol-2-yl]-1,1′-biphenyl-4-yl}-5-(trifluoromethyl)-1,2,4-oxadiazole] | 100 | 100 | 100 | 95 |  | 
5.79 | 6.06 | CC(C)(C)c1noc(-c2ccc(-c3ccc(C4CCC(c5c(F)cccc5F)=N4)c(F)c3)cc2)n1 (centres unmarked) [Example 5, 3-tert-butyl-5-{4′-[5-(2,6-difluorophenyl)-3,4-dihydro-2H-pyrrol-2-yl]-3′-fluoro-1,1′-biphenyl-4-yl}-1,2,4-oxadiazole] | 100 | 100 | 100 | 98 | 100 | 100
3.99 |  | Cc1ccccc1C1=NC(c2ccc(-c3ccc(-c4noc(C(C)(C)C)n4)cc3)cc2)CC1 (centres unmarked) [Example 11] | 100 | 100 | 100 | 98 |  | 
4.18 |  | Cc1ccccc1C1=NC(c2ccc(-c3ccc(-c4nc(C(C)(C)C)no4)cc3)cc2)CC1 (centres unmarked) [Example 12] | 100 | 100 | 100 | 98 |  | 
3.02 | 4.03 | N#Cc1cnn(-c2ccc(-c3ccc(C4CCC(c5c(F)cccc5F)=N4)cc3)cc2)c1 (centres unmarked) [Example 18] |  | 100 | 100 | 90 |  | 
3.35 | 4.68 | Cc1nc(-c2ccc(-c3ccc(C4CCC(c5c(F)cccc5F)=N4)cc3)cc2)cs1 (centres unmarked) [Example 22] | 100 |  | 100 | 90 | 100 | 

Continued, molecule first:

SMILES | chromatographic logP [1, 8] | chromatographic logP [1, 9] | pest or weed control at 100 ppm [2] [%] | pest or weed control at 100 ppm [3] [%] | pest or weed control at 100 ppm [4] [%] | pest or weed control at 100 ppm [5] [%] | Kill rate in % after 7 d [6] [%] | Kill rate in after 7 d [7] [%]
CCOC(=O)[C@H]1CC(c2c(F)cccc2F)=N[C@H]1c1ccc(-c2ccc(-c3noc(C(F)(F)F)n3)cc2)cc1 (racemic) [Example 8] | 5.18 |  | 100 | 100 | 100 | 95 |  | 
CCOC(=O)[C@H]1CC(c2c(F)cccc2F)=N[C@H]1c1ccc(-c2ccc(-c3noc(C(C)(C)C)n3)cc2)cc1 (racemic) [Example 9] | 5.29 |  | 100 | 100 | 100 |  |  | 
CCOC(=O)[C@H]1CC(c2c(F)cccc2F)=N[C@H]1c1ccc(-c2ccc(-c3nc(C(C)(C)C)no3)cc2)cc1 (racemic) [Example 10] | 5.39 |  | 100 | 100 | 100 |  |  | 
Cc1ccccc1C1=NC(c2ccc(Br)cc2)CC1 (centres unmarked) [2-(4-bromophenyl)-5-(2-methylphenyl)-3,4-dihydro-2H-pyrrole] | 1.82 | 4.48 |  |  |  |  |  | 
O=C(/C=C/c1ccc(Br)cc1F)c1c(F)cccc1F [(2E)-3-(4-bromo-2-fluorophenyl)-1-(2,6-difluoro-phenyl)-2-propen-1-one] | 4.18 |  |  |  |  |  |  | 
Cc1ccccc1C1=NC(c2ccc(B3OC(C)(C)C(C)(C)O3)cc2)CC1 (centres unmarked) [II-1, 5-(2-methylphenyl)-2-[4-(4,4,5,5-tetramethyl-1,3,2-dioxaborolan-2-yl)phenyl]-3,4-dihydro-2H-pyrrole] | 2.25 | 4.98 |  |  |  |  |  | 
CC1(C)OB(c2ccc(C3CCC(c4c(F)cccc4F)=N3)c(F)c2)OC1(C)C (centres unmarked) [II-2, 5-(2,6-difluorophenyl)-2-[2-fluoro-4-(4,4,5,5-tetramethyl-1,3,2-dioxaborolan-2-yl)phenyl]-3,4-dihydro-2H-pyrrole] | 4.88 |  |  |  |  |  |  | 
CC(=O)NC(CCC(=O)c1c(F)cccc1F)c1ccc(Br)cc1F (centres unmarked) [N-[1-(4-bromo-2-fluorophenyl)-4-(2,6-difluorophenyl)-4-oxobutyl]acetamide] | 2.74 |  |  |  |  |  |  | 
CC(=O)NC(CCC(=O)c1ccccc1C)c1ccc(Br)cc1 (centres unmarked) [N-[1-(4-bromophenyl)-4-(2-methylphenyl)-4-oxobutyl]acetamnide] | 3.33 |  |  |  |  |  |  | 
O=C(c1c(F)cccc1F)C1CC1c1ccc(Br)cc1F (centres unmarked) [[2-(4-bromo-2-fluorophenyl)cyclopropyl](2,6-difluorophenyl)methanone] | 4.31 |  |  |  |  |  |  | 
